The subject of data set [1] is cytosolic ALDH. Put plainly: NAD-linked cytosolic ALDH assay, L1210/CPA cells. Format: biochemical, Murine. The protocol: (§1) Cultured murine leukemic cells and livers (excised from mice immediately after cervical dislocation) were homogenized in 3 volumes of ice-cold 1.15% KCl and 1 mM EDTA. The homogenate was centrifuged at 100,000 g for 45 min and the resulting supernatant was used to measure cytosolic ALDH activity. For particulate ALDH assay, the pellet (and homogenate for total ALDH) was resuspended in homogenizing buffer and treated with 0.25% Triton X-100 for 30 min at 4°C. The solubilized preparations were centrifuged at 48,000 g for 30 min and the supernatants were drawn off for ALDH determinations.
(§2) ALDH activity was measured by monitoring the reduction of NAD or NADp for 5-6 min at […] at 37°C in DU70 spectrophotometer (Beckman). The assay mixture contained 50 mM potassium phosphate buffer, pH 7.4, 2.0 mM NAD (or NADP) and 1.0 mM EDTA. The reaction was started by adding the substrate (SDA or other aldehyde) to the prewarmed (5 min at 37°C) assay mixture containing enzyme preparation. Pyrazole (0.1 mM) was added particularly for liver enzyme, to inhibit alcohol dehydrogenase. The apparent Km and maximum velocity (Vmax) values were calculated using a Lineweaver-Burk plot based on the estimation of the slope by regression analysis. Enzyme activity was expressed as mU (nmoles/min) per mg of protein. Protein contents were determined by the Bradford method, using bovine serum albumin as the standard.

For data set [2], the system named is NADP-linked cytosolic ALDH. Put plainly: NADP-linked cytosolic ALDH assay, L1210/CPA cells. The data set is classed as biochemical, Murine. Conditions: SDA as substrate; read-out: 50% inhibition at. The protocol: as §1
as §2, with “standard. […]” for “standard.”

Data set [3] concerns tumor cells and hemopoietic progenitor cells. Put plainly: Cytotoxicity of ALDH inhibitors ex vivo. Format: cell-based. As to conditions: at concentrations much lower than needed for complete inhibition of ALDH. The source says:
Both disulfiram and acrolein were very toxic to tumor cells and hemopoietic progenitor cells ex vivo at concentrations much lower than that needed for complete inhibition of ALDH. […] Therefore, in subsequent experiments, DEAB was chosen to study the survival of leukemic cells and myeloid progenitor cells after treatment with SDA.

In data set [4] the target is T1, S-Adenosylmethionine Decarboxylase (AdoMet DC) (Mus musculus, UniProt P0DMN7).
T1 construct: endogenous in cells; host or cells: murine leukemic L1210 cells (supernatant)
T1 sequence (P0DMN7 68-334 limits assumed): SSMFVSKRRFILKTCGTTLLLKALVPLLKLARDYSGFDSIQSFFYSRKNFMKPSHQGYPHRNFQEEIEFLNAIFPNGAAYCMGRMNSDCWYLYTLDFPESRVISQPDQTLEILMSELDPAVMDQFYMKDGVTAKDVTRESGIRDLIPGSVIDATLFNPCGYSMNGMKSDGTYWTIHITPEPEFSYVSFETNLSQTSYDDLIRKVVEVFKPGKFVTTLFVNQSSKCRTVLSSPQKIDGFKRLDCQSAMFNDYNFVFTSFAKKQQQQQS
T1 sequence (P0DMN7 1-67 limits assumed): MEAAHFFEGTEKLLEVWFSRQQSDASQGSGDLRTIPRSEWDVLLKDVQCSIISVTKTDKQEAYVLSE
Put plainly: AdoMet DC inhibition in L1210 cell supernatants ([14C]CO2 release). Format: biochemical, Murine. Conditions: for inhibition of AdoMet DC (in words): Fig. 9 and Figure 10. The method, then:
Murine leukemic L1210 cell supernatants were incubated with different concentrations of SDA or butyl dialdehyde, and AdoMet DC activity was estimated by monitoring the release of [¹⁴C] CO₂. Inhibition curves for both drugs were superimposable with IC₅₀ values of 0.12-0.13 x 10⁻³ M.

Data set [5] relates to splenic T cell. Put plainly: Concanavalin A-stimulated splenic T cell proliferation ([3H]-thymidine incorporation). The data set is classed as cell-based, Mouse. The protocol:
Splenic cells were treated with various concentrations of SDA or an analogue for 30 min. at 37°C. Cells were washed and cultured in the presence of Concanavalin A for 3 days. [³H] Thymidine 0.1µCi/well was added and cells were harvested after 18-24 hrs.
Mouse spleen cells were cultured for 3 days in flat bottom microtiter relates at 10⁵ cells per well in the presence of […] of Con A. 3H-thymidine (0.1 microcurie/well) was added for the last 4-6 hours of the culture period. Cells were harvested as described above.
For [³H]-thymidine incorporation, drug or vehicle treated bone marrow or spleen cells were plated in RPMI-1640, containing 10% fetal bovine serum, 10 µM β-mercaptoethanol, 25 mM HEPES and 2 mM glutamine. Con-A (4 µg/ml and […]) was used as mitogens for bone marrow and spleen cells. Three days later, [³H]-thymidine (0.2 µCi/well) was added and cells were harvested after 12-18 hrs. L1210/CPA and L1210/0 cells (0.1 - 1 x 10⁵ cells/well were plated in RPMI-1640 containing 10% horse serum. [³H]-thymidine was added after 24 hrs and cells were filtered on GF/B filter paper for scintillation counting.

Data set [6] has as its target Ornithine decarboxylase (Mus musculus, UniProt P00860). Put plainly: Ornithine decarboxylase inhibition. The data set is classed as biochemical. As to conditions: Figure 10.
From the text: The figure illustrates the comparative profile of the inhibition of key regulatory enzymes of polyamine synthesis by SDA, its analogue, butyl dialdehyde (BDA), difluoromethyl orinithine (DFMO) and methyl glyoxal bis (guanylhydrazone) (MGBG).
Data set [7] is described as follows: Preliminary in vitro alkylation studies.
The subject of data set [8] is Cytosolic ALDH in mouse liver. Description: NAD-linked cytosolic ALDH assay, mouse liver. The data set is classed as biochemical. As to conditions: as substrate, mouse liver cytosol. The protocol: as §1, §2

Entries after “also recorded” stand apart in the source; their conditions may differ.

Sequence of Ornithine decarboxylase (P00860 whole entry): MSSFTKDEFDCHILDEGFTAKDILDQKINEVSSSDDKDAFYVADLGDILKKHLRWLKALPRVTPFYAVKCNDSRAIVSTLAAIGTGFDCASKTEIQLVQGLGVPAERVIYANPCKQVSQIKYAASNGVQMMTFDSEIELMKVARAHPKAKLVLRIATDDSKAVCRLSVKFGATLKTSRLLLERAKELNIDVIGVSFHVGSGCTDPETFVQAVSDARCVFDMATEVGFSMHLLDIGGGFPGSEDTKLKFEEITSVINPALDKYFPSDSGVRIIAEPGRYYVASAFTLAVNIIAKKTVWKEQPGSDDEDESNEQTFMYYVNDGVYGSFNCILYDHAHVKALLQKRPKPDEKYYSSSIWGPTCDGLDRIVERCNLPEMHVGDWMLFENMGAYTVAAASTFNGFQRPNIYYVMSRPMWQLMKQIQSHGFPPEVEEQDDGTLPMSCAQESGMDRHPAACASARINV

Regarding `C=CC=O` [Acrolein], the IC50 was 2500 ± 630 nM in data set [1] (SDA (1.0 mM) as substrate, pretreated with inhibitor 5 min at 37°C, read-out: Inhibition (IC₅₀)) and 50 to 100 µM in data set [2]. Besides, the “toxicity to tumor cells and hemopoietic progenitor cells ex vivo” value in data set [3] is reported as “very toxic”.
Consider `CC(C=NNC(=N)N)=NNC(=N)N` [MGBG, methyl glyoxal bis (guanylhydrazone), reference compound], for which the “inhibition of AdoMet DC (in words)” value in data set [4] is recorded as “inhibited AdoMetDC; also recorded: selectively reduced AdoMet IC activity”.
Turning to `c1cn[nH]c1` [Pyrazole], the “effect on L1210/CPA cytosolic enzyme” value in data set [1] (SDA as the substrate, data not shown) is given as “had no effect”.
In the case of `O=CCCCNCCCCNCCCC=O` [ANALOGUE # 7, butyl dialdehyde], the “potency in proliferation assays compared with SDA” value in data set [5] (Fig. 8) is given as “less potent than SDA”. For the same compound, in data set [5] (Figure 8), the “fold less potent than SDA” value was determined as 30 fold. The “inhibition of AdoMet DC (in words)” value in data set [4] was “selectively inhibited adenosylmethionine decarboxylase”. Also, in data set [4] (Figure 9, inhibition curves superimposable, read-out: IC₅₀ values), the IC50 was in the range of 120 to 130 µM.
Turning to `NCCCC(N)(C(=O)O)C(F)F` (stereo not drawn) [DFMO, difluoromethyl orinithine, reference compound], the “inhibition of ODC (in words)” value in data set [6] is recorded as “inhibited ODC with high potency”. Moreover, in data set [4], the “inhibition of AdoMet DC (in words)” value is “compensatory increase in AdoMetDC”.
Turning to `CC(=O)CCNCCCCNCCC(C)=O` [ANALOGUE # 3], in data set [7], the alkylation entry is reported as “nonspecific alkylating agents”.
`CCN(CC)C(=S)SSC(=S)N(CC)CC` [Disulfiram]: the “toxicity to tumor cells and hemopoietic progenitor cells ex vivo” value in data set [3] is on record as “very toxic”.
As to `CCC=O` [Propionaldehyde], the Km in data set [1] (as substrate, L1210/CPA cytosol, NAD, ± SEM, 3-4 experiments) is 26.5 ± 4.9 µM; in data set [8] (NAD, ± SEM, 3-4 experiments), 14 ± 2.8 µM. Further, the “Specific (activity of ALDH)” value is reported as 10.5 ± 3.2 mU/mg Protein in data set [1] (as substrate, L1210/CPA cytosol, propionaldehyde 1.0 mM) and 22.5 ± 3.9 mU/mg Protein in data set [8] (propionaldehyde 1.0 mM).
As for `Nc1ncnc2c1nc(Sc1cc3c(cc1Br)OCO3)n2CCc1ccccc1Cl` [ANALOGUE # 4], the alkylation entry in data set [7] is reported as “nonspecific alkylating agents”.

The record behind these values is patent EP0366451A2, “The use of oxidized polyamines, especially NN'-Bis-(3-propionaldehyde)-1-4-diaminobutane (sperminedialdehyde) as immunosuppressive agents” (ORTHO PHARMACEUTICAL CORPORATION, priority 1988, dated 1990).
